Results published in publication doi:10.1101/2020.07.01.182642v1 (biorxiv, 2020).

Tests used:
Conditions in all cases: binder
GSG2 = GSG2 (Homo sapiens, UniProt Q8TF76)
STK38 = STK38 (Homo sapiens, UniProt Q15208)
CSNK1G3 = CSNK1G3 (Homo sapiens, UniProt Q9Y6M4)
PKN2 = PKN2 (Homo sapiens, UniProt Q16513)
JAK1 = JAK1 (Homo sapiens, UniProt P23458)
ACVR2A = ACVR2A (Homo sapiens, UniProt P27037)
GSK3B = GSK3B (Homo sapiens, UniProt P49841)
CAMK2B = CAMK2B (Homo sapiens, UniProt Q13554)
ACVR1B = ACVR1B (Homo sapiens, UniProt P36896)
Sequence of ACVR1B (P36896 whole entry): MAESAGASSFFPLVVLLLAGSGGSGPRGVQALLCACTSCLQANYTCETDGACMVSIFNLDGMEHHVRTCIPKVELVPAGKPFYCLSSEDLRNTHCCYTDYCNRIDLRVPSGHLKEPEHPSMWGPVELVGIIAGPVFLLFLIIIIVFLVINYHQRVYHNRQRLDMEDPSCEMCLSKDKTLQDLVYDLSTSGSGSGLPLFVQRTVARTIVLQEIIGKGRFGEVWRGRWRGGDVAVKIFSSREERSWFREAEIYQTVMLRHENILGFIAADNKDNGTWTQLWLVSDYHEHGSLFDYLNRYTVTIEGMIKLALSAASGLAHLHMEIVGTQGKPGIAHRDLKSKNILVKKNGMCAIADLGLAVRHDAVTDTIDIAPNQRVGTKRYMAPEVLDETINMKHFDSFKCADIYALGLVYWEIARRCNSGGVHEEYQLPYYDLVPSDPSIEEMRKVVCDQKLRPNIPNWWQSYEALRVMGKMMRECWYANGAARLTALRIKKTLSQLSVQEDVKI

DAPK3 = DAPK3 (Homo sapiens, UniProt O43293)
MAPK6 = MAPK6 (Homo sapiens, UniProt Q16659)
PRKD3 = PRKD3 (Homo sapiens, UniProt O94806)
RIOK2 = RIOK2 (Homo sapiens, UniProt Q9BVS4)
Sequence of RIOK2 (Q9BVS4 whole entry): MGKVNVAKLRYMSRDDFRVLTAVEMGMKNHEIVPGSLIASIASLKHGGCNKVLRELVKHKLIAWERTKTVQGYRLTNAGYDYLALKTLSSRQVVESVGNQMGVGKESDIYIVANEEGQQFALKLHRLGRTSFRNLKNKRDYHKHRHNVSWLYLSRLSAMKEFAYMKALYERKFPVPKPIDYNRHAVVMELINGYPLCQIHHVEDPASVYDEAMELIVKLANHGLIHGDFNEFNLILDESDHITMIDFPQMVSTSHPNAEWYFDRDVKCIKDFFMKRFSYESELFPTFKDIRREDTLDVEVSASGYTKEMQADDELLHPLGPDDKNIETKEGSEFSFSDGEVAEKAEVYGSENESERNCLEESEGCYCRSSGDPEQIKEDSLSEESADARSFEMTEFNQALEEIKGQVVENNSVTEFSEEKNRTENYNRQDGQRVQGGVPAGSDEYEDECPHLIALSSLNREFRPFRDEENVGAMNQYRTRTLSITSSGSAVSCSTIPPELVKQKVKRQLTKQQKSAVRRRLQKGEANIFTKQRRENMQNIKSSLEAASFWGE

CDC42BPG = CDC42BPG (Homo sapiens, UniProt Q6DT37)
TGFBR2 = TGFBR2 (Homo sapiens, UniProt P37173)
MERTK = MERTK (Homo sapiens, UniProt Q12866)
MAP3K5 = MAP3K5 (Homo sapiens, UniProt Q99683)
DMPK = DMPK (Homo sapiens, UniProt Q09013)
ACVRL1 = ACVRL1 (Homo sapiens, UniProt P37023)
AKT3 = AKT3 (Homo sapiens, UniProt Q9Y243)
DCLK1 = DCLK1 (Homo sapiens, UniProt O15075)
MAPK3 = MAPK3 (Homo sapiens, UniProt P27361)
VRK1 = VRK1 (Homo sapiens, UniProt Q99986)
MYLK2 = MYLK2 (Homo sapiens, UniProt Q9H1R3)
Sequence of MYLK2 (Q9H1R3 whole entry): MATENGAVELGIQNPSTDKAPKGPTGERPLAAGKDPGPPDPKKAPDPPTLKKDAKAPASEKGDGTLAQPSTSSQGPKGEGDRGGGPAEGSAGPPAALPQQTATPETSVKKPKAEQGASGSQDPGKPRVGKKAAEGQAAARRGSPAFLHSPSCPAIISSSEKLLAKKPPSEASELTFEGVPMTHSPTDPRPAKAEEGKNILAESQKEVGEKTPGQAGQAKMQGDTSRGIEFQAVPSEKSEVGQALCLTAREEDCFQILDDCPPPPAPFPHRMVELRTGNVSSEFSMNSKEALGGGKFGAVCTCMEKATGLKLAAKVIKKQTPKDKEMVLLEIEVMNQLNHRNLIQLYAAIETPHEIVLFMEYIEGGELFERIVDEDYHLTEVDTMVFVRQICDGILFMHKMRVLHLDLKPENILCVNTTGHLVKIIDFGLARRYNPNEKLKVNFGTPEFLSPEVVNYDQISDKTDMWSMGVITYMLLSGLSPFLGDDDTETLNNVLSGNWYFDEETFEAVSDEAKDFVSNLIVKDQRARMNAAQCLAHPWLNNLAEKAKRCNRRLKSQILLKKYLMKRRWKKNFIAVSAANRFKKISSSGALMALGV

STK24 = STK24 (Homo sapiens, UniProt Q9Y6E0)
MAP2K1 = MAP2K1 (Homo sapiens, UniProt Q02750)
Sequence of MAP2K1 (Q02750 whole entry): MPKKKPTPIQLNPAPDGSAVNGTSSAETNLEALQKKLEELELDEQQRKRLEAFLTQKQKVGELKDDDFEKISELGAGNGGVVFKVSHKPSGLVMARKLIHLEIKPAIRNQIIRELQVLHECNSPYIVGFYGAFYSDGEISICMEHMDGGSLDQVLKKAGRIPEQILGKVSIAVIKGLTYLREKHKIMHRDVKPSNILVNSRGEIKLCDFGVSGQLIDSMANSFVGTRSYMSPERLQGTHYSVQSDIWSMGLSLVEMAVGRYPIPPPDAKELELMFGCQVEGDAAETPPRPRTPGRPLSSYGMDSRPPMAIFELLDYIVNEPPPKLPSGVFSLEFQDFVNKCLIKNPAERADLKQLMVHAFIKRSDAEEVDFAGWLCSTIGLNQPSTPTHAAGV

MAPK8 = MAPK8 (Homo sapiens, UniProt P45983)
MAP4K4 = MAP4K4 (Homo sapiens, UniProt O95819)
IKBKB = IKBKB (Homo sapiens, UniProt O14920)
Sequence of IKBKB (O14920 whole entry): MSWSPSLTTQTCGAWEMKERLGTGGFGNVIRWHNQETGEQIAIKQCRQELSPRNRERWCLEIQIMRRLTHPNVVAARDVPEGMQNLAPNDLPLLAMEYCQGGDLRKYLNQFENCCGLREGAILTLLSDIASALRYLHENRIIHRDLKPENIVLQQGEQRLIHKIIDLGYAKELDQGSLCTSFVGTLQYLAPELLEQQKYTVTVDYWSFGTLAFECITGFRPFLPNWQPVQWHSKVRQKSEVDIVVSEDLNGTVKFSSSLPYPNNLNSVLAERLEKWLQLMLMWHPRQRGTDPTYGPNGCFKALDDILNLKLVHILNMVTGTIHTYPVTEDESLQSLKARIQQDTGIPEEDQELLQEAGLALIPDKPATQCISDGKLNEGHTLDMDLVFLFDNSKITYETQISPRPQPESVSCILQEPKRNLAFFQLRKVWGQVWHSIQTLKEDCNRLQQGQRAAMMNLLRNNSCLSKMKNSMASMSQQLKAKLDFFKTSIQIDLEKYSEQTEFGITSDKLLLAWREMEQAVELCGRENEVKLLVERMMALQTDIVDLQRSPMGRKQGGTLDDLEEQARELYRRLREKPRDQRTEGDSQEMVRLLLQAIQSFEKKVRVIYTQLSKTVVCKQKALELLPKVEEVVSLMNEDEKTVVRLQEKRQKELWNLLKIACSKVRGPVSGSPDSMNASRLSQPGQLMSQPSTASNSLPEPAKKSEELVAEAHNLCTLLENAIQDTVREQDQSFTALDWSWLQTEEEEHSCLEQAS

TRIB1 = TRIB1 (Homo sapiens, UniProt Q96RU8)
CDC42BPA = CDC42BPA (Homo sapiens, UniProt Q5VT25)
Sequence of CDC42BPA (Q5VT25 whole entry): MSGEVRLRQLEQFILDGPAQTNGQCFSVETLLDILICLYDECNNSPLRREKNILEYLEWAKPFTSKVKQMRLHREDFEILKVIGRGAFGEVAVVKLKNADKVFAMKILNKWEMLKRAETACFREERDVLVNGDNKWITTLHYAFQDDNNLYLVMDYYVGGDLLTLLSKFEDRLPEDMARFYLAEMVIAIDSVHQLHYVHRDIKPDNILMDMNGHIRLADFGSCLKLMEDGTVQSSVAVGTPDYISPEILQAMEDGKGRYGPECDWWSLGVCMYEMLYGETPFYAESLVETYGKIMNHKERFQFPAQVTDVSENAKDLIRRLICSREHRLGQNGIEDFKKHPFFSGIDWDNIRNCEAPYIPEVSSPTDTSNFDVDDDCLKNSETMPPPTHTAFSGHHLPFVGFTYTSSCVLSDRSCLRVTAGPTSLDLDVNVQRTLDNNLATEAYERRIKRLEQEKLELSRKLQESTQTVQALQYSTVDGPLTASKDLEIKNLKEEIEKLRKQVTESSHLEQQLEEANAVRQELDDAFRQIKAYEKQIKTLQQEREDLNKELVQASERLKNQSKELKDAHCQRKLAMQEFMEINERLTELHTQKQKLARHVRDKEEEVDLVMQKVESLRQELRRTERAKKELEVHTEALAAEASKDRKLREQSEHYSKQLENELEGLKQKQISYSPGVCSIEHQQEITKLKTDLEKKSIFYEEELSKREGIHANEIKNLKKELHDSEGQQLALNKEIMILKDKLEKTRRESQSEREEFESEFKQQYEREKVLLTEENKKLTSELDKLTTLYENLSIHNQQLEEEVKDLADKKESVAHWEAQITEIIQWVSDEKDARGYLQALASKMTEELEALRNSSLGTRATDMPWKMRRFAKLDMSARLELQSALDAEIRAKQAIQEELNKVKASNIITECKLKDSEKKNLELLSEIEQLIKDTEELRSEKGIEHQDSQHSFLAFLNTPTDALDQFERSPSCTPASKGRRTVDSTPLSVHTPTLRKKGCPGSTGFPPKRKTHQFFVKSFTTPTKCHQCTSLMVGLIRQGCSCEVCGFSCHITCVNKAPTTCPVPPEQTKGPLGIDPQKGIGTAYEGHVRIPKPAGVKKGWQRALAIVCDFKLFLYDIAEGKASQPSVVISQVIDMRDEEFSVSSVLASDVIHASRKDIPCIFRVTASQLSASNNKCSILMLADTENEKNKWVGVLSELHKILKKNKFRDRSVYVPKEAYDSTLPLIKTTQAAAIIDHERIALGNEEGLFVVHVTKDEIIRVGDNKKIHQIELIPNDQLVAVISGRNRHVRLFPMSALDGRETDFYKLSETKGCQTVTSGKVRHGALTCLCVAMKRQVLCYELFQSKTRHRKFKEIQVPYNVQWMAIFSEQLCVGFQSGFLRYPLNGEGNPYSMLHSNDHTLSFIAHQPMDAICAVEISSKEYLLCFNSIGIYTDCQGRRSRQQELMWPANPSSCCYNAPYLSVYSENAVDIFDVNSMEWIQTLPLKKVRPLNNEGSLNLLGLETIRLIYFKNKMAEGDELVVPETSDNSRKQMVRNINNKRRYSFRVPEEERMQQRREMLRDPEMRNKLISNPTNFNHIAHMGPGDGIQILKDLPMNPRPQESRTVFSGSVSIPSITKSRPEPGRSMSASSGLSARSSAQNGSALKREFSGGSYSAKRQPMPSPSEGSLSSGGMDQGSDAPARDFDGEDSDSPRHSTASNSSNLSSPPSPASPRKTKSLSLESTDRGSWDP

Sequence of CSNK1G3 (Q9Y6M4 whole entry): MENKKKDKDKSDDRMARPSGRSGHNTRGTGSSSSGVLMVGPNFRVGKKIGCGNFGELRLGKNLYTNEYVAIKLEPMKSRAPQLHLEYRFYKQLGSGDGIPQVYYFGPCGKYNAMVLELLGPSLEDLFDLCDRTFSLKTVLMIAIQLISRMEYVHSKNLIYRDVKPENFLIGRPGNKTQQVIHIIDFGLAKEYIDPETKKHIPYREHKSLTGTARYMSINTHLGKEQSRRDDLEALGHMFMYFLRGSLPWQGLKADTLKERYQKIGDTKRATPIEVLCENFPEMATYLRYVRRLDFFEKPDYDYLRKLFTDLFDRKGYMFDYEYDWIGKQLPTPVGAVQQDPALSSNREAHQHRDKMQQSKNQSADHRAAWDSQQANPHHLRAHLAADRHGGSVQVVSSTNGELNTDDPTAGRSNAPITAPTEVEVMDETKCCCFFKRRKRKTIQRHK

CC(=O)c1cccc(-c2cnc3ccc(NCC4CC4)nn23)c1 [compound 1, K00135]
ΔTm inhibitor 1 (GSG2): 6.5 °C
ΔTm inhibitor 1 (STK38): 1.1 °C
ΔTm inhibitor 1 (CSNK1G3): 0.3 °C
ΔTm inhibitor 1 (PKN2): 3.7 °C
ΔTm inhibitor 1 (JAK1): 6.4 °C
ΔTm inhibitor 1 (ACVR2A): 4.0 °C
ΔTm inhibitor 1 (GSK3B): 4.1 °C
ΔTm inhibitor 1 (CAMK2B): 0.2 °C
ΔTm inhibitor 1 (ACVR1B): 9.1 °C
ΔTm inhibitor 1 (DAPK3): 2.8 °C
ΔTm inhibitor 1 (MAPK6): 0.4 °C
ΔTm inhibitor 1 (PRKD3): 0.8 °C
ΔTm inhibitor 1 (RIOK2): 0.3 °C
ΔTm inhibitor 1 (CDC42BPG): 0.6 °C
ΔTm inhibitor 1 (TGFBR2): 13.7 °C
ΔTm inhibitor 1 (MERTK): 1.3 °C
ΔTm inhibitor 1 (MAP3K5): 2.2 °C
ΔTm inhibitor 1 (DMPK): 1.0 °C
ΔTm inhibitor 1 (ACVRL1): 11.1 °C
ΔTm inhibitor 1 (AKT3): 0.4 °C
ΔTm inhibitor 1 (DCLK1): 0.6 °C
ΔTm inhibitor 1 (MAPK3): 0.5 °C
ΔTm inhibitor 1 (VRK1): 0.7 °C

CCN1/C(=C/C(C)=O)Sc2ccc(OC)cc21 [compound 2, TG003]
ΔTm inhibitor 2 (STK38): 0.4 °C
ΔTm inhibitor 2 (MYLK2): -1.4 °C
ΔTm inhibitor 2 (PKN2): -0.5 °C
ΔTm inhibitor 2 (STK24): -0.2 °C
ΔTm inhibitor 2 (JAK1): 0.1 °C
ΔTm inhibitor 2 (MAP2K1): -0.1 °C
ΔTm inhibitor 2 (GSK3B): 1.4 °C
ΔTm inhibitor 2 (CAMK2B): 0.3 °C
ΔTm inhibitor 2 (DAPK3): 0.9 °C
ΔTm inhibitor 2 (MAPK6): 0.0 °C
ΔTm inhibitor 2 (PRKD3): 2.7 °C
ΔTm inhibitor 2 (MAPK8): 0.7 °C
ΔTm inhibitor 2 (RIOK2): -0.2 °C
ΔTm inhibitor 2 (CDC42BPG): -1.3 °C
ΔTm inhibitor 2 (MAP4K4): -0.1 °C
ΔTm inhibitor 2 (MERTK): 0.0 °C
ΔTm inhibitor 2 (MAP3K5): 0.4 °C
ΔTm inhibitor 2 (IKBKB): 0.1 °C
ΔTm inhibitor 2 (DMPK): 1.0 °C
ΔTm inhibitor 2 (TRIB1): 0.2 °C
ΔTm inhibitor 2 (AKT3): 0.0 °C
ΔTm inhibitor 2 (DCLK1): -0.4 °C
ΔTm inhibitor 2 (CDC42BPA): -0.4 °C
ΔTm inhibitor 2 (MAPK3): -0.1 °C
ΔTm inhibitor 2 (VRK1): 1.1 °C

Nc1nccc(-c2ccc3noc(-c4ccc(Cl)cc4)c3c2)n1 [compound 4, K00972]
ΔTm inhibitor 4 (GSG2): 4.0 °C
ΔTm inhibitor 4 (MYLK2): 0.0 °C
ΔTm inhibitor 4 (CSNK1G3): 1.2 °C
ΔTm inhibitor 4 (STK24): 0.8 °C
ΔTm inhibitor 4 (ACVR2A): 0.3 °C
ΔTm inhibitor 4 (MAP2K1): 0.2 °C
ΔTm inhibitor 4 (ACVR1B): 1.1 °C
ΔTm inhibitor 4 (MAPK8): 1.0 °C
ΔTm inhibitor 4 (MAP4K4): 0.2 °C
ΔTm inhibitor 4 (TGFBR2): 2.0 °C
ΔTm inhibitor 4 (IKBKB): 1.5 °C
ΔTm inhibitor 4 (TRIB1): 0.1 °C
ΔTm inhibitor 4 (ACVRL1): 1.2 °C
ΔTm inhibitor 4 (CDC42BPA): 0.6 °C
